{"source": "patent US20090258045A1", "about": "“[…] ANTIMICROBIAL PEPTIDES” (Massachusetts Institute of Technology, priority 2008, published 2009)", "key": {"[1]": {"system": "S. aureus", "details": "free Ponericin; cited from earlier work"}, "[2]": {"system": "S. aureus", "assay": "Staphyloccocus aureus macrodilution assay", "type": "cell-based, Staphylococcus aureus", "description": "Staphyloccocus aureus macrodilution assays. All liquid assays were performed in cation-adjusted Mueller Hinton Broth II (CMHB). Qualitative assays were performed following standard macrodilution methods as outlined by the National Committee on Clinical Laboratory Standards (Standards, N. C. f. C. L. Journal, 1999, Approved standard M26-A) with a challenge of 10^5 CFU/mL. For assays involving co-incubation with films deposited on silicon, 24-well plates were used, with 0.5 mL of liquid culture per well. Briefly, each square-cut silicon substrate (1.0 cm×1.0 cm), either bare or coated depending on the test group, was placed flat in the center of a well in a 24-well plate, polished side up. Each well was then filled with 0.50 mL of S. aureus in exponential growth phase at 10^5 CFU/mL in CMHB, completely immersing the substrate. Quantitative assays were done in 96-well plates with 150 μL of liquid culture per well, with 135 μL of test media and 15 μL of inoculation culture at 10^6 CFU/mL in CMHB. All test media were sterile-filtered through 0.2 μm membranes prior to use. […] Cell density was read at OD 600 nm in a BioTek® PowerWave™ XS Microplate Spectrophotometer with accompanying Gen5 program Version 1.00.14. […]\nAntimicrobial activity of Ponericin as released from LbL assemblies. In vitro activity of Ponericin, both in dipping solution and as released from films, were assessed against S. aureus. […]"}}}
{"substance": "Ponericin G1", "values": [{"measurement": "reported MIC", "setting": "[1]", "result": "4 to 8", "unit": "µg/mL"}, {"measurement": "concentration needed to inhibit S. aureus proliferation", "setting": "[2]; dipping solution: free Ponericin in 0.1M sodium acetate (FIG. 7A)", "result": "11 to 22", "unit": "µg/mL"}, {"measurement": "concentration needed to inhibit S. aureus proliferation", "setting": "[2]; film-released: elution buffer of [(Poly 1/HA)(Pon/HA)]100 (FIG. 7B)", "result": "11 to 22", "unit": "µg/mL"}]}
